Measurements reported in patent US20250019385A1, “SPIROCYCLIC ANNULATED 2-AMINO-3-CYANO THIOPHENES AND DERIVATIVES FOR THE TREATMENT OF CANCER” (Boehringer Ingelheim International GmbH, priority 2023, published 2025).

How the values were obtained:
SK-CO-1 cells = experiment: SK-CO-1 CTG proliferation assay (120 h) (CRC, G12V); assay type: cell-based; conditions: Homo sapiens
Protocol: (§1) SK—CO-1 cells (ATCC HTB-39) are dispensed into black 384-well plates, flat and clear bottom (Greiner, PNr. 781091) at a density of 500 cells per well in 60 μl EMEM (Sigma M5650)+10% FCS (fetal calf serum, HyClone, SH30084.03). Cells are incubated overnight at 37° C. in a humidified tissue culture incubator at 5% CO2. Compounds (10 mM stock in DMSO) are added at logarithmic dose series using the ECHO acoustic liquid handler system (Beckman Coulter), normalizing for added DMSO and including DMSO controls. All compound treatments are performed in technical duplicates. For the TO time point measurement, untreated cells are analyzed at the time of compound addition. Plates are incubated for 120 h, and cell viability is measured using CellTiter-Glo luminescent cell viability reagent (Promega product code G7570). Viability (stated as percent of control) is defined as relative luminescence units RLU of each well divided by the RLU of cells in DMSO controls. IC50 values are determined from viability measurements by non-linear regression using a four-parameter model.
(§2) IC50 values of representative compounds according to the invention measured with these assays in the indicated cell lines are presented in Table 46.

[1] = Plasma protein binding assay (PPB), equilibrium dialysis; assay type: in vitro ADME; conditions: bovine, 10% FCS in PBS, read-out: PPB 10% FCS (% fu)
Protocol: Binding of test compounds to plasma was determined using equilibrium dialysis (ED) and quantitative mass spectrometry interfaced with liquid chromatography (LC-MS). In brief, ED was performed with dialysis devices consisting of two chambers separated by a semipermeable membrane with a molecular weight cut-off of 5-10 kg/mol. One chamber was filled with 10% FCS in PBS containing 1-10 μmol/L test compound and the other chamber was filled with phosphate-buffer saline (PBS) with or without dextran. The dialysis chamber was incubated for 3-5 hours at 37° C. After incubation, protein was precipitated from aliquots of each chamber and the concentration of test compound in the supernatant of the plasma-containing compartment (cserum) and of the buffer-containing compartment (cbuffer) was determined by LC-MS. The fraction of unbound test compound (not bound to plasma) (f) was calculated according to the following equation: […]

AsPC-1 cells = experiment: AsPC-1 CTG proliferation assay (120 h) (pancreatic cancer, G12D); assay type: cell-based; conditions: Homo sapiens, ASPC1
Protocol: as §1, with “AsPC-1” for “SK—CO-1”, “CRL-1682)” for “HTB-39)”, “RPMI ATCC-Formulation (PAN P04-18047)+10%” for “EMEM (Sigma M5650)+10%”
as §2

IC50 (SK-CO-1 cells) [µM]	fraction unbound [1]	IC50 (AsPC-1 cells) [µM]	Compound
0.005	0.03	0.236	CO[C@H]1CCN(C)[C@@H]1[C@H](C)Oc1nc(-c2noc3c2CCC[C@@]32CCCc3sc(N)c(C#N)c32)nc2c1n(C)c(=O)n2[C@@H]1CCCOC1 [II-3]
0.001	–	0.04	C[C@H](Oc1nc(-c2noc3c2CCC[C@@]32CCCc3sc(N)c(C#N)c32)nc2c1n(C)c(=O)n2[C@H]1CO[C@@H](C)C1)[C@@H]1CCCN1C [II-5]
0.002	0.07	0.265	CO[C@@H]1C[C@@H]([C@H](C)Oc2nc(-c3noc4c3CCC[C@@]43CCCc4sc(N)c(C#N)c43)nc3c2n(C)c(=O)n3[C@@]23COC[C@@H]2C3)N(C)C1 [II-6]
0.032	0.02	0.307	C[C@H](Oc1nc(-c2noc3c2CCC[C@@]32CCCc3sc(N)c(C#N)c32)nc2c1CN(c1ncccn1)[C@]21CCOC1)[C@@H]1CCCN1C [II-7a]
0.154	0.05	0.629	C[C@H](Oc1nc(-c2noc3c2CCC[C@@]32CCCc3sc(N)c(C#N)c32)nc2c1CN(c1ncccn1)[C@@]21CCOC1)[C@@H]1CCCN1C [II-7b]
0.004	0.09	0.081	CO[C@@H]1C[C@@H]([C@H](C)Oc2nc(-c3noc4c3CCC[C@@]43CCCc4sc(N)c(C#N)c43)nc3c2COC[C@]32CCOC2)N(C)C1 [II-11]
0.005	0.19	0.129	C[C@H](Oc1nc(-c2noc3c2CCC[C@@]32CCCc3sc(N)c(C#N)c32)nc2c1CN(C1COC1)C[C@]21CCOC1)[C@@H]1CCCN1C [II-12]
0.003	0.09	0.043	CO[C@H]1CCN(C)[C@@H]1[C@H](C)Oc1nc(-c2noc3c2CCC[C@@]32CCCc3sc(N)c(C#N)c32)nc2c1CN(C1COC1)C[C@]21CCOC1 [II-13]
0.002	–	0.034	C[C@H](Oc1nc(-c2noc3c2CCC[C@@]32SCCc3sc(N)c(C#N)c32)nc2c1COC[C@]21CCOC1)[C@@H]1CCCN1C [II-16]

The remaining lines, values behind:

Compound	IC50 (SK-CO-1 cells) [µM]	fraction unbound [1]	IC50 (AsPC-1 cells) [µM]
C[C@H](Oc1nc(-c2onc3c2CCC[C@@]32CCCc3sc(N)c(C#N)c32)nc2c1n(C)c(=O)n2[C@@H]1CCOC1)[C@@H]1[C@H](F)CCN1C [I-4]	0.077	0.13	2.74
CO[C@H]1CCN(C)[C@@H]1[C@H](C)Oc1nc(-c2onc3c2CCC[C@@]32CCCc3sc(N)c(C#N)c32)nc2c1n(C)c(=O)n2[C@@H]1CCCOC1 [I-6]	0.007	0.17	0.607
C[C@H](Oc1nc(-c2onc3c2CCC[C@@]32CCCc3sc(N)c(C#N)c32)nc2c1[nH]c(=O)n2[C@@H]1CCCOC1)[C@@H]1CCCN1C [I-13]	0.048	0.18	2.37
CO[C@@H]1C[C@@H]([C@H](C)Oc2nc(-c3onc4c3CCC[C@@]43CCCc4sc(N)c(C#N)c43)nc3c2n(C)c(=O)n3[C@@H]2CCCOC2)N(C)C1 [I-14]	0.007	0.15	0.767
CO[C@H]1C[C@H](n2c(=O)n(C)c3c(O[C@@H](C)[C@@H]4CCCN4C)nc(-c4onc5c4CCC[C@@]54CCCc5sc(N)c(C#N)c54)nc32)C1 [I-16]	0.243	0.13	3.99
C[C@H](Oc1nc(-c2onc3c2CCC[C@@]32CCCc3sc(N)c(C#N)c32)nc2c1n(C)c(=O)n2[C@H]1CC2CCC1O2)[C@@H]1CCCN1C (some centres unmarked) [I-17]	0.083	0.04	1.48
C[C@H](Oc1nc(-c2onc3c2CCC[C@@]32CCCc3sc(N)c(C#N)c32)nc2c1n(C)c(=O)n2[C@@H]1CC2CCC1O2)[C@@H]1CCCN1C (some centres unmarked) [I-18]	0.362	0.2	4.32
C[C@H](Oc1nc(-c2onc3c2CCC[C@@]32CCCc3sc(N)c(C#N)c32)nc2c1n(C)c(=O)n2[C@H]1CCC[C@@H]1O)[C@@H]1CCCN1C [I-19]	0.19	0.05	2.99
CO[C@H]1C[C@@H](n2c(=O)n(C)c3c(O[C@@H](C)[C@@H]4CCCN4C)nc(-c4onc5c4CCC[C@@]54CCCc5sc(N)c(C#N)c54)nc32)C1 [I-31]	0.094	0.09	1.07
CCn1c(=O)n([C@@H]2CCCOC2)c2nc(-c3onc4c3CCC[C@@]43CCCc4sc(N)c(C#N)c43)nc(OC[C@@]34CCCN3C[C@H](F)C4)c21 [I-33]	0.911	0.02	8.95
CCn1c(=O)n([C@@H]2CCCOC2)c2nc(-c3onc4c3CCC[C@@]43CCCc4sc(N)c(C#N)c43)nc(OCC34CCCN3CCC4)c21 [I-34]	0.273	0.07	5.07
CCn1c(=O)n([C@@H]2CCCOC2)c2nc(-c3onc4c3CCC[C@@]43CCCc4sc(N)c(C#N)c43)nc(OCC3(CN4CCCC4)CC3)c21 [I-35]	0.185	0.07	4.25
CCn1c(=O)n([C@@H]2CCCOC2)c2nc(-c3onc4c3CCC[C@@]43CCCc4sc(N)c(C#N)c43)nc(O[C@@H](C)C34CCCN3CCC4)c21 [I-36]	0.014	0.06	1.1
C[C@H](Oc1nc(-c2onc3c2CCC[C@@]32CCCc3sc(N)c(C#N)c32)nc2c1N(C)C(=O)CN2[C@@H]1CCOC1)[C@@H]1CCCN1C [I-37]	0.323	0.13	4.12
C[C@@H]1COC[C@H](n2c(=O)n(C)c3c(O[C@@H](C)[C@@H]4CCCN4C)nc(-c4onc5c4CCC[C@@]54CCCc5sc(N)c(C#N)c54)nc32)C1 [I-44]	0.005	0.1	0.271
C[C@H](Oc1nc(-c2onc3c2CCC[C@@]32CCCc3sc(N)c(C#N)c32)nc2c1n(C)c(=O)n2[C@@]12COC[C@@H]1C2)[C@@H]1CC[C@H](C)N1C [I-45]	0.004	0.2	0.286
CO[C@@H]1C[C@@H]([C@H](C)Oc2nc(-c3onc4c3CCC[C@@]43CCCc4sc(N)c(C#N)c43)nc3c2n(C)c(=O)n3[C@@]23COC[C@@H]2C3)N(C)C1 [I-46]	0.004	0.32	0.292
C[C@H](Oc1nc(-c2onc3c2CCC[C@@]32CCCc3sc(N)c(C#N)c32)nc2c1n(C)c(=O)n2[C@H]1CO[C@@H](C)C1)[C@@H]1CCCN1C [I-47]	–	0.13	–
C[C@H](Oc1nc(-c2onc3c2CCC[C@@]32CCCc3sc(N)c(C#N)c32)nc2c1n(C)c(=O)n2[C@H]1CO[C@@H](C)C1)[C@@H]1CC[C@H](C)N1C [I-50]	–	0.09	–
CO[C@H]1CCN(C)[C@@H]1[C@H](C)Oc1nc(-c2onc3c2CCC[C@@]32CCCc3sc(N)c(C#N)c32)nc2c1n(C)c(=O)n2[C@H]1COC[C@@H](C)C1 [I-51]	–	0.07	–
CO[C@@H]1C[C@@H]([C@H](C)Oc2nc(-c3onc4c3CCC[C@@]43CCCc4sc(N)c(C#N)c43)nc3c2n(C)c(=O)n3[C@H]2COC[C@@H](C)C2)N(C)C1 [I-52]	–	0.06	–
C[C@H](Oc1nc(-c2onc3c2CCC[C@@]32CCCc3sc(N)c(C#N)c32)nc2c1CN(C1COC1)C[C@]21CCOC1)[C@@H]1CC[C@H](C)N1C [I-55]	0.006	0.2	0.202
C[C@H](Oc1nc(-c2onc3c2CCC[C@@]32CCCc3sc(N)c(C#N)c32)nc2c1CN(C1COC1)C[C@]21CCOC1)[C@@H]1CCCN1C [I-56]	0.007	0.3	0.092
CO[C@H]1CCN(C)[C@@H]1[C@H](C)Oc1nc(-c2onc3c2CCC[C@@]32CCCc3sc(N)c(C#N)c32)nc2c1CN(C1COC1)C[C@]21CCOC1 [I-57]	0.007	0.28	0.129
CO[C@@H]1C[C@@H]([C@H](C)Oc2nc(-c3onc4c3CCC[C@@]43CCCc4sc(N)c(C#N)c43)nc3c2CN(C2COC2)C[C@]32CCOC2)N(C)C1 [I-58]	0.009	0.24	0.314
